Results on two molecules are retold here after EP0415219A1, “ANF-Antagonist” (F. HOFFMANN-LA ROCHE AG, priority 1989, dated 1991).

Where a SMILES comes first, the peptide text is derived from it. Bridges are numbered along the chain shown (N, C = ends).

In assay [1] the target is ANF Rezeptor (Membranpräparation von Rindernebennieren). The experiment in a line: Binding test: displacement of radiolabelled ANF from its receptor (membrane preparation of bovine adrenal glands). The arrangement: species or system Rind. Particulars: inhibition of ¹²⁵I-ANF (18,2 pM) binding, 24 h at 4°C; read-out: IC₅₀. As to the method: In einem Bindungstest nach Bürgisser et al. [Biochem. Biophys. Res. Comm. 133, 1201 (1985)] wurde die Verdrängung von radioaktiv-markiertem ANF von dessen Rezeptor durch den ANF-Antagonisten gemessen. Als Rezeptorpräparation wurde eine Membranpräparation von Rindernebennieren verwendet. Zu 100 µl dieser Präparation in 50 mM Tris/HCl, 500 mM MgCl₂, 1 mM EDTA. 0,5% Rinderserumalbumin und 1 mM o-Phenanthrolin, pH 7,6, wurden ¹²⁵I-ANF (20'000 cpm. 18,2 pM) in 145 µl dieses Puffers und der Ligand in 5 µl Dimethylsulfoxid gegeben. Diese Mischung wurde 24 Stunden bei 4°C inkubiert und gebundenes von freiem ANF durch schnelle Filtration über Whatman GF/C Glasfaserfilter abgetrennt. Nach dreimaligem Waschen der Filter mit obigem Puffer (3 x 4 ml) wurden die Filter zerschnitten und deren Radioaktivität im Gamma-Zähler gemessen. Die Inhibition der Bindung wurde quantitativ mit der IC₅₀ erfasst, worunter diejenige Konzentration an entsprechendem Liganden zu verstehen ist, bei der die Bindung von ¹²⁵I-ANF halbmaximal gehemmt wird. Tabelle

Assay [2] relates to spontanhypertensive Ratten (SHR). The experiment in a line: In vivo blood pressure in conscious SHR under ANF infusion. Particulars: bolus 1 mg/kg after ANF infusion 2.5 µg/kg/min. As to the method: (§1) Für die in vivo Versuche wurden 20 Wochen alte spontanhypertensive Ratten (SHR) oder normotensive pathogen-freie (SPF) Ratten verwendet. In wache SHR wurde 2.5 µg/kg/min ANF infundiert, was den Blutdruck um 45 mm Hg senkte. Eine anschliessende Bolusgabe von 1 mg/kg ANF-Antagonist erhöhte den Blutduck wiederum auf den Ausgangswert von 220 mm Hg. Anästhesierten SPF-Ratten ohne zentrale Reflexe ("pithed rats") wurde Angiotensin II (0,15 µg/kg/min) infundiert, um den Blutdruck auf 100-110 mm Hg anzuheben. Dann wurde ein Bolus von 10 µg/kg ANF gegeben. was den Blutdruck um 20 mm Hg senkte. […] Diese Versuche zeigen, dass der Blutdruckanstieg unter dem ANF-Antagonisten nicht auf eine Aktivierung von symphatischen Reflexen, sondern auf die Wirkung eines ANF-Antagonisten zurückzuführen ist.

In assay [3] the test system is SPF-Ratten ohne zentrale Reflexe ("pithed rats"). The experiment in a line: In vivo blood pressure in anaesthetised pithed SPF rats under angiotensin II infusion. Particulars: Angiotensin II 0,15 µg/kg/min, 1 mg/kg i.v. after bolus of 10 µg/kg ANF. The protocol: as §1

As for `CC[C@H](C)[C@@H]1NC(=O)[C@H](Cc2ccccc2)NC(=O)CNC(=O)C[C@@H](C(=O)N[C@H](C(=O)N[C@@H](Cc2ccccc2)C(=O)NCC(=O)N[C@@H](Cc2c[nH]cn2)C(=O)N[C@@H](Cc2ccc(O)cc2)C(=O)N[C@@H](CO)C(=O)NCC(=O)N[C@@H](CC(=O)O)C(=O)N[C@@H](Cc2ccccc2)C(=O)O)[C@@H](C)CC)NC(=O)[C@H](CC(N)=O)NC(=O)CNC(=O)[C@H](Cc2c[nH]c3ccccc23)NC(=O)CNC1=O` [ANF-Antagonist] (GFIGWGNDIFGHYSGDF-OH; lactam N-8; C-terminus assumed), the IC50 in assay [1] was 0.86 µM. The “Blutdruck nach Bolusgabe (erhöht auf den Ausgangswert)” value in assay [2] was 220 mm Hg. The “Blutdruck nach intravenöser Gabe” value in assay [3] is recorded as “erhöhte den Blutdruck wiederum auf den Ausgangswert”.
Take `CC[C@H](C)[C@@H]1NC(=O)[C@H](Cc2ccccc2)NC(=O)CNC(=O)C[C@@H](C(=O)N[C@H](C(=O)N[C@@H](Cc2ccccc2)C(=O)NCC(=O)N[C@@H](Cc2c[nH]cn2)C(=O)N[C@@H](Cc2ccc(O)cc2)C(=O)N[C@@H](CO)C(=O)NCC(=O)N[C@@H](CC(=O)OC)C(=O)N[C@@H](Cc2ccccc2)C(=O)OC)[C@@H](C)CC)NC(=O)[C@H](CC(N)=O)NC(=O)CNC(=O)[C@H](Cc2c[nH]c3ccccc23)NC(=O)CNC1=O` [Dimethylester] (GFIGWGNDIFGHYSGD(OMe)F-OMe; lactam N-8): in assay [1], the IC50 worked out at 2.5 µM.
